Results published in PubChem BioAssay (NCI).
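Cells were grown in 96-well plates and exposed to each compound for 48 hours at five concentrations; endpoints were interpolated linearly between bracketing concentrations, or set to the highest concentration if not reached. TGI marks complete inhibition of growth.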

Experiments:
Test in all cases: NCI anticancer screen, dose series, 48 h
[1] = tested on: A498 renal
[2] = tested on: SK-MEL-28 melanoma
[3] = tested on: EKVX NSCLC
[4] = tested on: UO-31 renal
[5] = tested on: IGROV1 ovarian
[6] = tested on: NCI-H522 lung

Structure (SMILES)	TGI [1] [µM]	TGI [2] [µM]	TGI [3] [µM]	TGI [4] [µM]	TGI [5] [µM]	TGI [6] [µM]
O=C1/C(=C\c2ccccc2)c2ccccc2N1/N=C\c1ccccc1	> 100	> 100	> 100	> 100	> 100	–
Cc1ccc(Nc2nc(C)c(C(/C=C/c3ccc4c(c3)OCO4)=N/Nc3ccc([N+](=O)[O-])cc3[N+](=O)[O-])s2)c([N+](=O)[O-])c1	–	> 100	> 100	> 100	> 100	37.4
Cc1cccc(N=C2NC(=O)C(CC(=O)Nc3ccccc3Cl)S2)c1 (stereo unspecified)	> 100	> 100	> 100	> 100	> 100	–
O=c1[nH]cnc2c1ncn2CCCCO	> 100	> 100	> 100	> 100	> 100	–
CCCCCCCCCCCCCCCCCc1nnc(N)o1	–	> 100	–	> 100	> 100	> 100
O=c1cc(-c2ccc(O)cc2)oc2cc(O)cc(O)c12	–	59.1	96.9	56.4	80	64.5
O=c1[nH]c2c(c3ccccc13)CCc1ccccc1-2	–	> 100	> 100	> 100	> 100	> 100
O=C(CC(=O)c1ccccc1)C(=O)NC12CC3CC(CC(C3)C1)C2	> 100	> 100	> 100	> 100	> 100	> 100
NS(=O)(=O)c1ccc(NC(=O)c2cccc3c(Nc4ccc(S(N)(=O)=O)cc4)c4ccccc4nc23)cc1	> 100	> 100	> 100	> 100	> 100	49.9
O=S(=O)(N/N=C/c1ccc(Cl)cc1Cl)c1ccccc1	> 100	> 100	> 100	> 100	> 100	–
COC(=O)c1nc(N)nc(C(=O)OC)c1C(=O)c1ccccc1	> 100	> 100	> 100	> 100	> 100	> 100
CCOC(=O)/C=C1\Oc2ccccc2C1(C)O (stereo unspecified)	> 100	> 100	> 100	> 100	> 100	> 100
CC(=O)O[C@H]1CC[C@@]2(C)C(=C/C(=N\[N+](=O)[O-])[C@H]3C4CCC([C@H](C)CCCC(C)C)[C@@]4(C)CCC32)C1 (stereo partly specified)	> 100	> 100	> 100	> 100	> 100	> 100
CCOC(=O)C1Oc2ccc([N+](=O)[O-])cc2C1(C)O (stereo unspecified)	> 100	> 100	> 100	> 100	> 100	> 100
Nc1ccc(C2=Nc3ccccc3SC(c3ccccc3O)C2)cc1 (stereo unspecified)	74.1	> 100	> 100	> 100	> 100	64.9
[O-][n+]1c2cc(CN3CCOCC3)c(CN3CCOCC3)cc2[n+]([O-])c2c(O)cccc21	31.5	32.5	20.2	10.4	13	6.23
O=C(O)c1cc(=O)c2cc(C(=O)c3cccs3)c(Cl)c(Cl)c2o1	> 100	> 100	> 100	> 100	> 100	> 100
COC1(Cc2ccccc2)C(=O)c2ccccc2N1C(C)=O (stereo unspecified)	> 100	> 100	> 100	> 100	> 100	–
O=C(O)C1CC2CC(=O)C1C2 (stereo unspecified)	> 100	> 100	> 100	> 100	> 100	> 100
O=C(NC1C=Nc2ccccc2NC1=O)c1ccccc1Cl (stereo unspecified)	> 100	> 100	> 100	> 100	> 100	> 100
OC1c2ccccc2C2C(O)c3ccccc3C12 (stereo unspecified)	–	> 100	> 100	> 100	> 100	> 100
CCOC(=O)c1cn(CC)c2cc3c(cc2c1=O)SCS3	–	> 100	> 100	> 100	> 100	> 100
O=C1NN=C(c2ccc([N+](=O)[O-])cc2)C1n1nc(-c2ccccc2)c2ccccc2c1=O (stereo unspecified)	> 100	> 100	> 100	> 100	> 100	> 100
COc1cc(/C=C\c2ccc(Cl)cc2)cc(OC)c1OC	1.25	> 67.5	> 87.5	> 43.6	> 100	0.355
COc1ccc(/C=N\O[Si](C)(C)C(C)(C)C)cc1O[Si](C)(C)C(C)(C)C	33.2	–	41.6	27.9	36	–
COC(=O)C1=C(c2ccc(Cl)cc2)C(O)N=C(NN)N1 (stereo unspecified)	–	> 100	> 100	> 100	> 100	> 100
